# Earlier results, collected in patent US10980740B2, “Tranexamic acid spray for knee arthroplasty” (SHILPA MEDICARE LIMITED, priority 2017, dated 2021).
# Like-named read-outs stand apart in the source and are kept apart here.
# Columns and labels:
# [1] = target: plasminogen (Homo sapiens, UniProt P00747)
# [2] = system: Total knee arthroplasty patients
# [3] = system: patients undergoing elective total knee arthroplasty
# Chain of plasminogen (P00747 20-810 limits assumed, species assumed): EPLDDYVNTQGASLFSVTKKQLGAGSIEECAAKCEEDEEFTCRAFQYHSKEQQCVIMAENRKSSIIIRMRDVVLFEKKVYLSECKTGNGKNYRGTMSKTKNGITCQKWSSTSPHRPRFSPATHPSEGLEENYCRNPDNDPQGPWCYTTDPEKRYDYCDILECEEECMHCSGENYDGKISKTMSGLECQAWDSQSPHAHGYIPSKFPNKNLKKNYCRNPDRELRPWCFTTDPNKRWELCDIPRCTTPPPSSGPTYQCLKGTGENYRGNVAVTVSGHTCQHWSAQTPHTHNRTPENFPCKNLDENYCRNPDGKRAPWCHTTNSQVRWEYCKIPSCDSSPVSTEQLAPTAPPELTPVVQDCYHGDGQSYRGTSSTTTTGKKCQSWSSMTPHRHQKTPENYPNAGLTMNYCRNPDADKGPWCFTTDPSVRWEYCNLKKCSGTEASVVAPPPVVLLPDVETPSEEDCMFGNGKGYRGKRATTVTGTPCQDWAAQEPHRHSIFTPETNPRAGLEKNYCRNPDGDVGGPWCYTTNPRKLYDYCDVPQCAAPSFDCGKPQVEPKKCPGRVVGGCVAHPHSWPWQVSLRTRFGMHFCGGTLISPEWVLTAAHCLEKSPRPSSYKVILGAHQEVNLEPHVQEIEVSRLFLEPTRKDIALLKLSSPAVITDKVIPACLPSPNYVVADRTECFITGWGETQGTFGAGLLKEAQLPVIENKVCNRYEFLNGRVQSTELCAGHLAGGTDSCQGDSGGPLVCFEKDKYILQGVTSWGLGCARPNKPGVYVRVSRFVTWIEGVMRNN
smiles,measurement,setting,value
NC[C@H]1CC[C@H](C(=O)O)CC1 [Tranexamic acid],potency in vitro relative to aminocaproic acid,[1],about 10 times
same,systemic side effects,[2]; topical tranexamic acid,reduces the systemic side effects
same,"reduction of peri- and post-operative blood loss, topical compared with intravenous","[2]; total knee arthroplasty, topical 2 gm in intra-articular drain, clamped one hour",equally efficacious
same,reducing calculated blood loss and transfusion rates,[3]; intravenous,effective
same,reducing calculated blood loss and transfusion rates,"[3]; topical, 3 gm diluted in 45 mL normal saline, applied after cementation",effective
